From paper PMC2071910 (Respiratory Research, 2007)
Like-named read-outs stand apart in the source and are kept apart here.

What was measured:
[1] = parameters: method as in earlier work; details: cited from earlier work
[2] = In vitro metabolism in human lung precision-cut tissue slices, HPLC with UV detection; assay type: in vitro ADME; details: for Relative drug amount in medium: Parent compound: incubation medium, initial 25 μM; for Relative drug amount in medium: Parent compound / Relative drug amount in human lung tissue slices: Parent compound / Total amount in human lung tissue slices: Parent compound: mean ± SD n = 9; for Relative drug amount in human lung tissue slices: Parent compound / Total amount in human lung tissue slices: Parent compound: tissue extract; for Metabolites detected in incubation medium: incubation medium, 2, 6 and 24 h; for Share of BDP-related material in tissue / Share of BDP-related material in medium: incubation of BDP 25 μM; for Share of BDP-related material in tissue: lung tissue extract
Procedure: Lung slices were prepared at Vitron, Inc. (Tucson, AZ, USA) as previously described. In brief, the lungs were inflated with 2 to 4 L of 0.5% agar/Waymouth's medium mixture at 37°C and were stored at 4°C for 30 to 60 min. Each lung was cut into 2 cm thick slabs, placed on dental wax, and tissue cylinders of 8 mm diameter were prepared using a cordless coring tool. 400 μm thick slices were cut from the cylinders using a Brendel-Vitron tissue slicer.
Three lung slices from each donor were floated onto titanium roller inserts, blotted, and loaded horizontally into glass scintillation vials containing 1.7 mL of Waymouth's MB752/1 tissue culture medium fortified with 10% fetal calf serum, 0.35 g/L L-glutamine, 10 mL/L Fungi-Bact, and 84 μg/mL gentamicin sulfate.
Three vials were used per substrate and time point. A stock solution of the substrate was added prior to dispensing the media into vials. The final substrate concentration was 25 μM. The vials were closed with caps that had central 2-mm holes, placed in a Dynamic Organ Culture incubator (Vitron, Inc., Tucson, AZ, USA) at 37°C, and exposed to 95% O2 and 5% CO2. The human tissue slices were incubated for 2, 6, and 24 h, and cellular viability of human lung slices was assessed using separate incubation samples (see assessment of cellular viability). Slices and media from each vial were harvested separately into separate tubes and stored at -80°C. Metabolism samples containing either tissue or media were shipped on dry ice from Vitron, Inc. to ALTANA Pharma AG for analysis.
The volume of medium was measured at the end of the incubation period. Samples of the incubation medium were prepared by mixing 60 μL of medium with 60 μL of solution for precipitation (0.2 M ZnSO4/ACN, 1:1). Following centrifugation for 5 min (1,000 × g Model5414, Eppendorf) at room temperature, the supernatant was assayed by high performance liquid chromatography (HPLC). Tissue samples were homogenized in 1 mL of methanol using ultrasonic treatment (Branson Sonifier 250; Branson Ultrasonics Corporation, Danbury, Conn) and were centrifuged for 5 min (1,000 × g Model5414, Eppendorf) at room temperature. After centrifugation, 333 μL of the supernatant was dried under a gentle stream of nitrogen at 45°C and resuspended in 75 μL of methanol before analysis.
HPLC analysis was performed using a Hewlett-Packard HP1090 liquid chromatograph (Agilent Technologies Deutschland GmbH, Waldbronn, Germany) with an ultraviolet (UV) detector monitoring at 242 nm. Separation was achieved using a Hypersil MOS column (125 × 4 mm, 5 μm) (Thermo Electron Corp., Dreieich, Germany). A water/ethanol gradient system was run from 30 to 90% ethanol in 10 min followed by an isocratic phase (6 min) with 90% ethanol at a flow rate of 0.75 mL/min. 25 μL of the tissue extract or 100 μL of the supernatant of the medium were injected onto the column.

[3] = cited from earlier work
glucocorticoid receptor = details: in words, compared with des-CIC and BMP; cited from earlier work
[4] = directly after inhalation of CIC 800 μg via MDI; cited from earlier work
[5] = parameters: method as in PMID 16566061; details: 14C-ciclesonide 25 μM, previous study; cited from earlier work
[6] = after inhalation of 1600 μg BUD via Nebuhaler
[7] = after inhalation of 1 mg BDP via MDI (Aerobec)

CC(C)C(=O)OCC(=O)[C@@]12O[C@H](C3CCCCC3)O[C@@H]1C[C@H]1[C@@H]3CCC4=CC(=O)C=C[C@]4(C)[C@H]3[C@@H](O)C[C@@]12C [Ciclesonide, ciclesonide]
logD [1]: 6.1 | Relative drug amount in medium: Parent compound ([2]; 2 h): 94.9 ± 1.3 % of total UV areas | Relative drug amount in medium: Parent compound ([2]; 6 h): 83.2 ± 5.5 % of total UV areas | Relative drug amount in medium: Parent compound ([2]; 24 h): 37.4 ± 7.8 % of total UV areas | Relative drug amount in medium: Parent compound ([2]; 24 h, listed as CIC): 37 % of total UV areas | Relative drug amount in human lung tissue slices: Parent compound ([2]; 2 h, 25 μM): 85.0 ± 3.4 % of total UV areas | Total amount in human lung tissue slices: Parent compound ([2]; 2 h, 25 μM): 6.46 ± 0.92 nmol/vial | Relative drug amount in human lung tissue slices: Parent compound ([2]; 6 h, 25 μM): 73.5 ± 4.7 % of total UV areas | Total amount in human lung tissue slices: Parent compound ([2]; 6 h, 25 μM): 8.86 ± 1.68 nmol/vial | Relative drug amount in human lung tissue slices: Parent compound ([2]; 24 h, 25 μM): 40.0 ± 7.6 % of total UV areas | Total amount in human lung tissue slices: Parent compound ([2]; 24 h, 25 μM): 9.53 ± 1.70 nmol/vial

CCCC1O[C@@H]2C[C@H]3[C@@H]4CCC5=CC(=O)C=C[C@]5(C)[C@H]4[C@@H](O)C[C@]3(C)[C@]2(C(=O)CO)O1 (some centres unmarked) [Budesonide, budesonide]
Mean concentration in blood plasma [3, 6]: 0.63 nmol/kg | Mean concentration in lung tissue obtained from resections [3, 6]: 5.5 nmol/kg | Affinity to the glucocorticoid receptor (glucocorticoid receptor): slightly lower | Metabolites detected in incubation medium ([2]; 25 μM, listed as BUD): no metabolites were detected | Relative drug amount in human lung tissue slices: Parent compound ([2]; 2 h, 25 μM): 72.2 ± 10.8 % of total UV areas | Total amount in human lung tissue slices: Parent compound ([2]; 2 h, 25 μM): 7.32 ± 0.99 nmol/vial | Relative drug amount in human lung tissue slices: Parent compound ([2]; 6 h, 25 μM): 64.9 ± 12.0 % of total UV areas | Total amount in human lung tissue slices: Parent compound ([2]; 6 h, 25 μM): 8.41 ± 2.15 nmol/vial | Relative drug amount in human lung tissue slices: Parent compound ([2]; 24 h, 25 μM): 53.6 ± 11.5 % of total UV areas | Total amount in human lung tissue slices: Parent compound ([2]; 24 h, 25 μM): 9.04 ± 1.14 nmol/vial

CCCCCCCCC=CCCCCCCCC(=O)OCC(=O)C12OC(C3CCCCC3)OC1CC1C3CCC4=CC(=O)C=CC4(C)C3C(O)CC12C (centres unmarked) [Des-CIC-oleate]
Lipophilicity relative to BUD-oleate ([1]; from logD 13.0 vs 12.3): about 5 fold

C[C@]12C=CC(=O)C=C1CC[C@@H]1[C@@H]2[C@@H](O)C[C@@]2(C)[C@H]1C[C@H]1O[C@@H](C3CCCCC3)O[C@]12C(=O)CO [des-CIC, desisobutyryl-ciclesonide]
Amount detected in mouth rinsing solutions [4]: Only traces | Relative percentage of des-CIC at the end of the incubation period [5]: 29% | Affinity to the glucocorticoid receptor (glucocorticoid receptor): high affinity | Relative percentage of des-CIC at the end of the incubation period ([2]; incubation of CIC 25 μM, 24 h, present study): 32%

CCC(=O)O[C@]1(C(=O)SCF)[C@H](C)C[C@H]2[C@@H]3C[C@H](F)C4=CC(=O)C=C[C@]4(C)[C@@]3(F)[C@@H](O)C[C@@]21C [Fluticasone propionate, fluticasone propionate]
Concentration in central lung tissue ([3]; after single inhalation of FP, in a few patients): more than 20 ng/g | Mean concentration in serum ([3]; after single inhalation of FP, same time as lung tissue sample): approximately 0.02 ng/mL | logD ([1]; pH 7.4): 3.7 | Affinity to the glucocorticoid receptor (glucocorticoid receptor): higher | Metabolites detected in incubation medium ([2]; 25 μM, listed as FP): no metabolites were detected | Metabolites detected in tissue extract / metabolic stability ([2]; tissue extract, 2, 6 and 24 h, 25 μM): no metabolites were detected | Relative drug amount in human lung tissue slices: Parent compound ([2]; 2 h, 25 μM): 100 ± 0.0 % of total UV areas | Total amount in human lung tissue slices: Parent compound ([2]; 2 h, 25 μM): 8.42 ± 1.26 nmol/vial | Relative drug amount in human lung tissue slices: Parent compound ([2]; 6 h, 25 μM): 100 ± 0.0 % of total UV areas | Total amount in human lung tissue slices: Parent compound ([2]; 6 h, 25 μM): 8.62 ± 2.20 nmol/vial | Relative drug amount in human lung tissue slices: Parent compound ([2]; 24 h, 25 μM): 100 ± 0.0 % of total UV areas | Total amount in human lung tissue slices: Parent compound ([2]; 24 h, 25 μM): 9.51 ± 2.22 nmol/vial

C[C@H]1C[C@H]2[C@@H]3CCC4=CC(=O)C=C[C@]4(C)[C@@]3(Cl)[C@@H](O)C[C@]2(C)[C@@]1(O)C(=O)CO [BOH, beclomethasone]
Share of BDP-related material in tissue ([2]; 24 h): 64.9% | Share of BDP-related material in medium ([2]; 24 h): 91.6%

CCC(=O)OCC(=O)[C@@]1(OC(=O)CC)[C@@H](C)C[C@H]2[C@@H]3CCC4=CC(=O)C=C[C@]4(C)[C@@]3(Cl)[C@@H](O)C[C@@]21C [Beclomethasone dipropionate, beclomethasone dipropionate]
Total amount in human lung tissue slices: Parent compound ([2]; 2 h, 25 μM): 2.19 ± 0.83 nmol/vial | Total amount in human lung tissue slices: Parent compound ([2]; 6 h, 25 μM): 0.72 ± 0.46 nmol/vial

CCC(=O)O[C@]1(C(=O)CO)[C@@H](C)C[C@H]2[C@@H]3CCC4=CC(=O)C=C[C@]4(C)[C@@]3(Cl)[C@@H](O)C[C@@]21C [BMP, beclomethasone-17-monopropionate]
Median concentration in bronchial tissue [3, 7]: 4.4 ng/g tissue | Median concentration in serum [3, 7]: 1.2 ng/mL | Share of BDP-related material in tissue ([2]; 24 h): 26.6% | Share of BDP-related material in medium ([2]; 24 h): 8.4% | Amount of fatty acid esters formed, fold less than for BUD and des-CIC ([2]; lung tissue, esters formed by BMP (and/or BOH)): approximately 10 fold
